In patent publication US20250177340A1, “Tartaric Acid Analogs and Uses Thereof” (Lapix Therapeutics, Inc., priority 2021, published 2025):

Experiments:
murine CD8+ T-cells = assay: Murine CD8+ T-cell proliferation concentration-response (CFSE), Example 7; type: cell-based, C57BL/6 mice; conditions: for CD8+ T-cell proliferation: 0.001-30 mM, absence of PS, low dose ConA; for model estimated EC80, CD8+ T-cell proliferation: in the presence of 0.1 mM PS, log-logistic model; for reversal of suppressive effects of PS on T-cell proliferation: increasing doses, 0.1 mM PS liposomes
Excerpt: (§1) In this study, the effects of increasing doses of compound B and compound C on proliferation (CFSE staining), activation (Granzyme B and IFN-γ), and checkpoint modulation (PD1 and TIM3) of murine CD8+ T-cells in the presence and absence of phosphatidylserine (PS) were explored.
(§2) Preparation of test materials: 30:70 PS:DMPC liposomes were synthesized in PBS. […] Compound C was first dissolved in a small volume of DMSO before diluting to the final desired concentration.
(§3) Tissue culture and dosing: Splenocytes of C57BL/6 mice were stained with CFSE and prepared, cultured, and dosed. Cells were seeded at 4×10^5 cells/well.
(§4) Controls: Two controls were used. A negative control dosed with 10 ng/ml IL-2 was used, and a positive control dosed with 20 μg/ml ConA and 10 ng/ml IL-2 was used.
(§5) Treatment: After ConA stimulation (10 μg/ml), cells were dosed with log 3 dilution of compound B or compound C to cover a range from 1×10^−3 to 30 mM in duplicates with or without 0.1 mM PS:DMPC liposomes. All wells were dosed with 10 ng/ml of IL-2.
(§6) Flow cytometer: Flow cytometer analysis was performed to assess cell proliferation by CFSE, activation by double staining for Granzyme B (GzmB) and IFN-γ, checkpoint modulation by double staining for PD-1 and TIM3.
(§7) Exposure-response analysis: Change from baseline was calculated for each marker as follows:
(§8) Concentration versus change was fitted to an appropriate three-, four- or five-parameter log-logistic model using “dre” package in “R.”
The fold change from baseline of CD8+ T-cells proliferation as a function of increasing doses of compound B was calculated using equation 1, where ResponseControl was the proliferation of cells treated with IL-2 alone and Responsetreatment was the proliferation at each dose of compound B. The baseline PS response was calculated using the same equation where Responsetreatment was the proliferation of cells treated with 0.1 mM PS.

TIM3 and PD-1 = assay: TIM3+/PD-1+ double-positive murine CD8+ T-cells, Example 7; type: cell-based, C57BL/6 mice; conditions: for effect on PS-stimulated TIM3+/PD-1+ double-positive CD8+ T-cells: 0.1 mM PS; for average reduction in TIM3+/PD-1+ double-positive CD8+ T-cells vs 0.1 mM PS treated cells / average reduction in TIM3+/PD-1+ double-positive CD8+ T-cells vs negative control: absence of PS, dose-independent
Excerpt: as §1, §2, §3, §4, §5, §6, §7, §8
The fold change from baseline of TIM3+/PD-1+ double-positive CD8+ T-cells as a function of increasing doses of compound B was calculated using equation 1, where Responsecontrol was TIM3+/PD-1+ double-positive CD8+ T-cells in cells treated with IL-2 alone and Responsetreatment was TIM3+/PD-1+ double-positive CD8+ T-cells at each dose of compound B. The baseline PS response was calculated using the same equation with Responsetreatment as the TIM3+/PD-1+ double-positive CD8+ T-cells treated with 0.1 mM PS.

[1] = system: KLRG-1, CTLA-4, TIM-3, PD-1, IFNγ/Granzyme B, FoxP3; assay: Ex vivo flow cytometry of splenocytes after seven doses, murine melanoma model (Example 13); type: in vivo, mice; conditions: 7 doses, Compound B 4 mg/mouse PO QD, Compound C 2.5 mg/mouse IV QD; for inhibition of CTLA-4 as compared to control / inhibition of KLGR-1 as compared to control / inhibition of PD-1 as compared to control / inhibition of TIM-3 as compared to control: CD8+ splenocytes, one mouse per group
Experimental: (§9) This study was designed to evaluate the effects of Compound B and Compound C on tumor growth and the overall survival of animals implanted SC with 10^5 melanoma cells. Furthermore, ex vivo analysis of splenocytes at the end of dosing was used to evaluate change in the T-cell population and function. FIG. 8A is a diagram of the study design.
(§10) Animals were housed four per cage and had access to food and water ad libitum. Compound B was dissolved in sterile PBS, and pH was adjusted to approximately 7.5. Compound C was first dissolved in DMSO before diluting in sterile PBS. Sterile PBS was used as a control. Compound B was dosed at 4 mg/mouse PO QD. This dose was expected to result in an exposure equivalent to a 1 mg/mouse IV dose. Compound C was dosed at 2.5 mg/mouse IV.
(§11) B16F10 melanoma cells were grown in RPMI 1640 media supplemented with 10% FBS and antibiotics (penicillin/streptomycin) using T75 flasks. When cells reached 70-80% confluency, they were treated with 3 ml of 0.25% trypsin/EDTA. Detached cells were harvested. A single-cell suspension was prepared in PBS. A dorsal SC injection of 10^5 cells in mice marked day 0 of the experiment. Animals were monitored daily, and tumors were measured twice a week.
For tumor growth inhibition, animals were divided into 3 groups. The control group received an IV injection of PBS to match the start time, dosing volume, and dosing frequency of the Compound C treatment group. The treatment group received 100 μl of 4 mg/mouse PO QD of Compound B for 7 days starting at day 7 after tumor implantation, or 2.5 mg/mouse IV QD of Compound C. The endpoint was reached when the tumor reached 1 cm^3. Tumor volume was calculated using the following formula: […]
On day 14, one mouse from each group was sacrificed for ex vivo analysis. One animal with an average tumor size was selected from the control group and the Compound B treatment group. Since no animals in the Compound C treatment group had any visible tumors by day 14, one mouse was selected at random from the Compound C treatment group.
Spleens were collected and a single-cell suspension was prepared for cellular phenotyping by flow cytometry. Cells were stained and gated for CD8. IFNγ, Granzyme B (GzmB), KLRG-1, CTLA-4, TIM-3, and PD-1 expression was evaluated. Cells gated for CD4 were evaluated for FoxP3 expression.

B16F10 melanoma cells = assay: Tumor growth inhibition and overall survival, SC B16F10 melanoma (Example 13); type: in vivo, mice; conditions: Compound B 4 mg/mouse PO QD x7, Compound C 2.5 mg/mouse IV QD; for animals showing any tumor growth: by day 14; for animals with measurable tumors: by day 16; for tumor volume versus placebo group: duration of the study
Experimental: as §9, §10, §11
For tumor growth inhibition, animals were divided into 3 groups. The control group received an IV injection of PBS to match the start time, dosing volume, and dosing frequency of the Compound C treatment group. The treatment group received 100 μl of 4 mg/mouse PO QD of Compound B for 7 days starting at day 7 after tumor implantation, or 2.5 mg/mouse IV QD of Compound C. The endpoint was reached when the tumor reached 1 cm^3. Tumor volume was calculated using the following formula:
Tumor volume=length×width×½ width
The mice were also monitored for survival, and were euthanized when the tumor size reached the predefined endpoint of 1 cm^3.

Structure (SMILES) | CD8+ T-cell proliferation (murine CD8+ T-cells) | model estimated EC80, CD8+ T-cell proliferation (murine CD8+ T-cells) | reversal of suppressive effects of PS on T-cell proliferation (murine CD8+ T-cells) | effect on PS-stimulated TIM3+/PD-1+ double-positive CD8+ T-cells (TIM3 and PD-1) | average reduction in TIM3+/PD-1+ double-positive CD8+ T-cells vs 0.1 mM PS treated cells (TIM3 and PD-1) | average reduction in TIM3+/PD-1+ double-positive CD8+ T-cells vs negative control (TIM3 and PD-1) | decrease in FoxP3 positive CD4+ T-cells compared to placebo [1] | increase in GrzmB/INFγ double-positive CD8+ T-cells compared to placebo [1] | inhibition of CTLA-4 as compared to control [1] | inhibition of KLGR-1 as compared to control [1] | inhibition of PD-1 as compared to control [1] | inhibition of TIM-3 as compared to control [1] | animals did not survive the study (B16F10 melanoma cells) | animals survived tumor-free for the duration of the study (B16F10 melanoma cells) | animals survived with a tumor (to day 28) (B16F10 melanoma cells) | survival (B16F10 melanoma cells) | animals showing any tumor growth (B16F10 melanoma cells) | animals with measurable tumors (B16F10 melanoma cells) | tumor volume versus placebo group (B16F10 melanoma cells) | further results
O=C(O)[C@H](O)[C@@H](O)C(=O)OCCCc1ccccc1 [Compound B, (2R,3R)-2,3-dihydroxy-4-oxo-4-(3-phenylpropoxy)butanoic acid] | robust proliferation | 139 µM | partially reversed | reverse the stimulatory effects of PS | about ⅔ | about ⅗ | 1.5% | 25% | 42% | 55% | 13% | 63% | 3/7 | 3/7 | 1/7 | 40% | 3/7 | 3 | statistically lower | target concentration considered an effective dose (murine CD8+ T-cells; based on Example 7 analysis): 0.1 mM
O=C(O)[C@H](O)[C@@H](O)C(=O)OCCC(c1ccccc1)c1ccccc1 [Compound C, (2R,3R)-4-(3,3-diphenylpropoxy)-2,3-dihydroxy-4-oxobutanoic acid] | robust proliferation | 14.6 µM | completely reversed | can reverse the stimulatory effect of PS | about ⅘ | about ⅔ | 59% | 62% | 77% | 70% | 70% | 71% | 2/8 | 5/8 | 1/8 | 80% | 0/8 | 0 | statistically lower | doses at which proliferation overlapped with that in absence of PS (murine CD8+ T-cells; 0.1 mM PS): greater than 0.03 mM
